This is an account of results in patent US7713994B2 (Wyeth LLC, priority 2005, dated 2010).

Where a name gives a salt, the structure may show the parent alone. Read-outs that look alike come from different tables or passages of the source. Bounds are passed on as bounds.

One data set has as its system BT474. Description: Cytotoxicity assay (SRB), BT474. It is filed as cell-based. In short, it runs like this:
(§1)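 Cells were seeded overnight in RPMI 1640 with 5% FBS at 37 °C, 7% CO2 (12000/well BT474, 4000 HCT-116, 6000 LoVo, 6000 MCF-7), then exposed to compound dilutions for 3 days (6 days for BT474). Survival versus untreated controls was measured by TCA fixation and SRB staining at 540 nm.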

In a further data set the test system is HCT-116. Briefly: Cytotoxicity assay (SRB), HCT-116. It is filed as cell-based. Conditions: Homo sapiens, HCT-116, 72 h, HCT116 cells, SRB, read-out: In Vitro Cellular Activity IC50 HCT116. In a few lines:
as §1

The test system of the next data set is LoVo. Briefly: Cytotoxicity assay (SRB), LoVo. It is filed as cell-based. The conditions noted are these: Homo sapiens, LoVo, 72 h, LoVo cells, SRB, read-out: In Vitro Cellular Activity IC50 LOVO. In a few lines:
as §1

A further data set has as its system MCF-7. Description: Cytotoxicity assay (SRB), MCF-7. In kind it is cell-based. The conditions noted are these: Homo sapiens, MCF7, 72 h, MCF-7 cells, SRB, read-out: In Vitro Cellular Activity IC50 MCF-7. In a few lines: as §1
Where [1] appears, read: Homo sapiens, BT-474, 144 h, BT474 cells, SRB, 6 days; read-out: In Vitro Cellular Activity IC50 BT474.

For orientation: IC50 means the concentration at which inhibition is half-maximal. Broadly, the melting point is the temperature, or range, at which the solid turns liquid. As to `CN1CCN(c2ccc(NC=C3C(=O)NC(=O)c4ccc(OCCN5CCOCC5)cc43)cc2)CC1` [Example 155, 4-{[4-(4-Methyl-piperazin-1-yl)-phenylamino]-methylene}-6-(2-morpholin-4-yl-ethoxy)-4H-isoquinoline-1,3-dione], the melting point is 142 to 143 °C. For the same compound, in the data set with BT474 (setting [1]), the IC50 came out at 22 µM. The IC50 in the data set on HCT-116 (three days) stood at 17 µM. Further, the IC50 with LoVo (three days) was found to be 19 µM. For the same compound, the IC50 with MCF-7 (three days) is 26 µM.
On to `CN1CCN(c2ccc(N/C=C3\C(=O)NC(=O)c4ccc(C#CCOC5CCCCO5)cc43)cc2)CC1` (stereo not shown) [Example 161, (4Z)-4-({[4-(4-Methylpiperazin-1-yl)phenyl]amino}methylene)-6-[3-(tetrahydro-2H-pyran-2-yloxy)prop-1-ynyl]isoquinoline-1,3(2H,4H)-dione], for which the melting point is 175 to 176 °C. Further, the IC50 in the data set on BT474 (setting [1]) was determined as 3.4 µM. Besides, the IC50 in the data set on HCT-116 (three days) worked out at 2.2 µM. Besides, in the data set with LoVo (three days), the IC50 stood at 6.4 µM. The IC50 in the data set on MCF-7 (three days) was found to be 4 µM.
For `CCCOc1ccc(CN/C=C2\C(=O)NC(=O)c3ccc(I)cc32)nc1Br` [Example 493, (Z)-4-(((6-Bromo-5-propoxypyridin-2-yl)methylamino)methylene)-6-iodoisoquinoline-1,3(2H,4H)-dione], the melting point was 251 to 253 °C (dec.). In the data set with BT474 (Homo sapiens, BT-474, 144 h, BT474 cells, 6 days, SRB; read-out: In Vitro Cellular Activity IC50 BT474), the IC50 was determined as 10.9 µM. Also, the IC50 in the data set on HCT-116 (3 days) was 4.7 µM. For the same compound, the IC50 in the data set with LoVo (3 days) is 9.4 µM. The half-maximal inhibitory concentration (IC50) in the data set with MCF-7 (3 days) was 10.2 µM.
Consider `COc1cc2c(cc1Br)/C(=C/Nc1ccc(N3CCN(C)CC3)cc1)C(=O)NC2=O` [Example 242, 6-Bromo-7-methoxy-4-{[4-(4-methyl-piperazin-1-yl)-phenylamino]-methylene}-4H-isoquinoline-1,3-dione], for which the melting point was 274 to 276 °C. Also, the IC50 in the data set on BT474 (setting [1]) came to 3.2 µM. The IC50 with HCT-116 (three days) turned out to be 2.1 µM. Moreover, in the data set on LoVo (three days), the IC50 amounted to 4.5 µM. Moreover, in the data set on MCF-7 (three days), the IC50 was determined as 5.2 µM.
Turning to `CCCOc1ccc(CN/C=C2\C(=O)NC(=O)c3ccc(Br)cc32)cc1OC(=O)CC` [Example 190, 5-({[(Z)-(6-Bromo-1,3-dioxo-2,3-dihydroisoquinolin-4(1H)-ylidene)methyl]amino}-methyl)-2-propoxyphenyl propionate], the melting point was in the range of 206 to 207 °C. For the same compound, in the data set with BT474 (setting [1]), the IC50 is 1.4 µM. Moreover, in the data set on HCT-116 (three days), the IC50 was found to be 9.4 µM. The IC50 in the data set with LoVo (three days) amounted to 13 µM. Moreover, the IC50 in the data set with MCF-7 (three days) was greater than 50 µM.
On the same counts, the results for `COC[C@H]1CCCN1Cc1ccc(N/C=C2\C(=O)NC(=O)c3ccc(-c4ccc(OC(C)C)cc4)cc32)cc1` [Example 300, (4Z)-6-(4-Isopropoxyphenyl)-4-{[(4-{[(2R)-2-(methoxymethyl)pyrrolidin-1-yl]methyl}phenyl)amino]methylene}isoquinoline-1,3(2H,4H)-dione] are 200 to 201 °C, 17 µM, 3.1 µM, 26 µM and 8.7 µM.
Regarding `Cc1ccc(CN/C=C2\C(=O)NC(=O)c3ccc(I)cc32)cc1O` [Example 157, (4Z)-4-{[(4-Methyl-3-hydroxybenzyl)amino]methylene}-6-iodoisoquinoline-′1,3(2H,4H)-dione], the melting point was in the range of 312 to 313 °C. For the same compound, the IC50 in the data set with BT474 (setting [1]) is 19 µM. Besides, the IC50 with HCT-116 (three days) was 6.7 µM. Besides, the IC50 in the data set on LoVo (three days) is 22 µM. Moreover, the IC50 in the data set with MCF-7 (three days) was 8.2 µM.
On to `O=C1NC(=O)c2ccc(Br)cc2/C1=C/NCc1ccc2c(c1)OCO2` [Example 109, (4Z)-4-{[(1,3-Benzodioxol-5-ylmethyl)amino]methylene}-6-bromoisoquinoline-1,3(2H,4H)-dione], for which the melting point lay within 227 to 228 °C. For the same compound, the IC50 in the data set with BT474 (setting [1]) turned out to be 34.8 µM. Further, in the data set with HCT-116 (three days), the IC50 was 16.8 µM. Moreover, the IC50 in the data set with LoVo (three days) is greater than 50 µM. In addition, in the data set with MCF-7 (three days), the IC50 was greater than 50 µM.
The compound `CCCOc1ccc(CN/C=C2\C(=O)NC(=O)c3ccc(Br)cc32)cc1OC(=O)OC` [Example 191, 5-({[(Z)-(6-Bromo-1,3-dioxo-2,3-dihydroisoquinolin-4(1H)-ylidene)methyl]amino}-methyl)-2-propoxyphenyl methyl carbonate] gave a melting point of 211 to 212 °C. Besides, the IC50 with BT474 (setting [1]) came to 5.7 µM. The IC50 with HCT-116 (three days) was determined as 35 µM. Also, the IC50 in the data set with LoVo (three days) was greater than 50 µM. Further, the IC50 in the data set on MCF-7 (three days) is greater than 50 µM.
With `O=C1NC(=O)c2ccc(-c3ccc(Oc4ccccc4)cc3)cc2/C1=C/Nc1ccc(CN2CCCCC2)cc1` [Example 101], the melting point lay within 132 to 133 °C. In addition, the IC50 in the data set on BT474 (setting [1]) was 2.9 µM. Further, in the data set on HCT-116 (three days), the IC50 turned out to be 1.2 µM. In the data set with LoVo (three days), the IC50 is 4.3 µM. For the same compound, in the data set with MCF-7 (three days), the IC50 is 3.2 µM.
Regarding `COc1cc2c(cc1Br)/C(=C/Nc1ccc(CN3CCCCC3)cc1)C(=O)NC2=O` [Example 252, 6-Bromo-7-methoxy-4-[(4-piperidin-1-ylmethyl-phenylamino)-methylene]-4H-isoquinoline-1,3-dione], the melting point was 264 to 267 °C. For the same compound, the IC50 in the data set on BT474 (setting [1]) came out at 15 µM. Also, the IC50 in the data set on HCT-116 (three days) came out at 14 µM. Moreover, the IC50 in the data set with LoVo (three days) was 21 µM. Also, the IC50 in the data set on MCF-7 (three days) is 33 µM.
On the same counts, the results for `CN1CCN(C(=O)Nc2ccc(N/C=C3\C(=O)NC(=O)c4ccc(Br)cc43)cc2)CC1` [Example 215, N-(4-{[(Z)-(6-Bromo-1,3-dioxo-2,3-dihydroisoquinolin-4(1H)-′ylidene)methyl]amino}phenyl)-4-methylpiperazine-1-carboxamide] are greater than 300 °C, 7.4 µM, 4.5 µM, 6.4 µM and 7.1 µM.
For the compound `COc1ccc(CN/C=C2\C(=O)NC(=O)c3ccc(-c4cccc(F)c4)cc32)cc1O` (as salt: sodium) [Example 209, (4Z)-6-(3-Fluorophenyl)-4-{[(3-hydroxy-4-methoxybenzyl)amino]methylene}iso-quinoline-1,3(2H,4H)-dione], the melting point was 204 to 205 °C.
Turning to `O=C1NC(=O)c2ccc(-c3ccsc3)cc2/C1=C/Nc1ccc(CN2CCCCC2)cc1` (hydrate or solvate) [Example 104, (4Z)-4-({[4-(Piperidin-1-ylmethyl)phenyl]amino}methylene)-6-thien-3-ylisoquinoline-1,3(2H,4H)-dione], the melting point was 166 to 167 °C.
The same measure, in the same setting: the value for `CCCOc1ccc(CN/C=C2\C(=O)NC(=O)c3ccc(-c4cccc(F)c4)cc32)cc1O` (as salt: sodium) [Example 193, (4Z)-6-(3-Fluorophenyl)-4-{[(3-hydroxy-4-propoxybenzyl)amino]methylene}-isoquinoline-1,3(2H,4H)-dione] was 209 to 210 °C; that for `COc1ccc(-c2ccc3c(c2)/C(=C/Nc2ccc(N4CCN(C)CC4)cc2)C(=O)NC3=O)cc1` (hydrate or solvate) [Example 114, (4Z)-6-(4-methoxyphenyl)-4-({[4-(4-methylpiperazin-1-yl)phenyl]amino}methylene)-isoquinoline-1,3(2H,4H)-dione] was 224 to 225 °C.
`C[C@@H]1CN(c2ccc(N/C=C3\C(=O)NC(=O)c4ccc(-c5ccoc5)cc43)cc2)C[C@H](C)N1` (as salt: sodium) [Example 207, (4Z)-4-({[4-(3,5-Dimethylpiperazin-1-yl)phenyl]amino}methylene)-6-(3-furyl)iso-quinoline-1,3(2H,4H)-dione] displayed a melting point of 199 to 200 °C.
For `COc1ccc(CN/C=C2\C(=O)NC(=O)c3ccc(Cl)cc32)cc1O` (as salt: hydrochloride) [Example 67, (4Z)-6-Chloro-4-{[(3-hydroxy-4-methoxybenzyl)amino]methylene}isoquinoline-1,3(2H,4H)-dione], the melting point was in the range of 265 to 266 °C.
Take `CCCOc1ccc(CN/C=C2\C(=O)NC(=O)c3ccc(-c4ccc(F)c(F)c4)cc32)cc1O` (as salt: sodium) [Example 194, (4Z)-6-(3,4-Difluorophenyl)-4-{[(3-hydroxy-4-propoxybenzyl)amino]methylene}-isoquinoline-1,3(2H,4H)-dione]: the melting point was 227 to 228 °C.
For the compound `COc1cccc(-c2ccc3c(c2)/C(=C/Nc2ccc(CN4CCCCC4)cc2)C(=O)NC3=O)c1` (hydrate or solvate) [Example 117, (4Z)-6-(3-Methoxyphenyl)-4-({[4-(piperidin-1-ylmethyl)phenyl]amino}methylene)-isoquinoline-1,3(2H,4H)-dione], the melting point lay in the range of 169 to 170 °C.
The compound `C[C@@H]1CN(c2ccc(N/C=C3\C(=O)NC(=O)c4ccc(-c5ccsc5)cc43)cc2)C[C@H](C)N1` (as salt: sodium) [Example 206, (4Z)-4-({[4-(3,5-Dimethylpiperazin-1-yl)phenyl]amino}methylene)-6-thien-3-ylisoquinoline-1,3(2H,4H)-dione] returned a melting point of 164 to 165 °C.
The compound `CN1CCN(c2ccc(N/C=C3\C(=O)NC(=O)c4ccc(-c5ccc(F)cc5)cc43)cc2)CC1` (as salt: sodium) [Example 263, (4Z)-6-(4-Fluorophenyl)-4-({[4-(4-methylpiperazin-1-yl)phenyl]amino}methylene)-isoquinoline-1,3(2H,4H)-dione] displayed a melting point of 228 to 229 °C.
